Experimental data taken from patent US20250206708A1, “AN OXAZIRIDINE PLATFORM FOR TARGETING FUNCTIONAL ALLOSTERIC METHIONINE SITES” (Novartis AG, priority 2022, published 2025).

Assays:
[1] = biological target: CDK4 (Homo sapiens, UniProt P11802); assay: Gel-based ABPP competition with Compound 303 probe on isolated CDK4; assay type: binding; conditions: Cy3 fluorescence readout
Procedure: Activity-based protein profiling (ABPP) was performed as follows. CDK4 was diluted in PBS to 50 nM, then 50 μL was added to each well of a 96-well PCR plate. Ligands were dissolved fresh in DMSO to 5 μM, and 1 μL was added so each well contained a unique ligand at the indicated concentration. Wells were mixed and allowed to incubate 1 h at 23° C. […] Excess oxaziridine was quenched with N-acetyl methionine via addition of 1 μL of 10 mM DMSO stock (200 μM final), wells mixed and allowed to incubate 1 h at 23° C. A stock was prepared 1:5 of 12.5 μM DBCO-Cy3 in DMSO: 1.2% SDS/PBS. To each well was added 6 μL of this stock, the wells mixed and allowed to incubate overnight protected from light at 23° C. […] Samples were loaded and separated on precast 4-20% TGX gels and scanned by ChemiDoc MP for measuring in-gel fluorescence. […]
The oxaziridine fragment library from Example 8 was screened for methionine-directed modifiers of CDK4 via a gel-based ABPP platform as described in Example 3, seen in FIG. 7B. […] DBCO-Cy3 was then introduced by strain-promoted click chemistry to provide a fluorescence readout. The samples were subsequently separated via SDS-PAGE and fluorescence signals were normalized via silver stain to triage any covalent ligands that induced general protein aggregation, which would generate a false positive Cy3 signal, as shown in FIG. 5B. […]

[2] = tested on: MCF-7 cells; assay: Cell Counting Kit-8 cell viability assay in MCF-7; assay type: cell-based; conditions: Homo sapiens, MCF7; 24 h, CCK-8; read-out: EC50, decrease in cell viability of MCF-7 cells
Procedure: All cells were maintained as a monolayer in exponential growth at 37° C. in a 5% CO2 atmosphere. MCF-7 and HepG2 were maintained in Dulbecco's Modified Eagle Medium (DMEM, Gibco) supplemented with 10% (v/v) fetal bovine serum (FBS, Seradigm). HT-29 and SW-48 were maintained in RPMI 1640 Medium (Gibco) supplemented with 10% FBS.
All cells dosed with oxaziridine were treated using a 2% DMSO/media solution. Oxaziridines were dissolved in DMSO and used the same day as treatment. Media was removed from cells and replaced with fresh media containing oxaziridine in DMSO for a final concentration of 2% DMSO. Control wells were treated with 2% DMSO/media. Cells were incubated at 37° C. in a 5% CO2 atmosphere.
Commercially available Cell Counting Kit-8 Assay (Dojindo) was used to investigate cell viability after treatment with oxaziridines. Cells were plated in 96-well plates (black/clear bottom; Thermo Fisher) and grown to 75% confluency. Media was removed and replaced with media containing 2% DMSO and indicated compound concentration. Cells were allowed to incubate 24 h. To assess viability, media was removed and replaced with 100 μL media containing 10% CCK-8 assay solution. Plates were incubated at 37° C. in a 5% CO2 atmosphere for 1-4 h until an orange color was visible. Viability was quantified via plate reader (monofilter) with absorption at 450 nm.

CDK4, sequence (P11802 whole entry): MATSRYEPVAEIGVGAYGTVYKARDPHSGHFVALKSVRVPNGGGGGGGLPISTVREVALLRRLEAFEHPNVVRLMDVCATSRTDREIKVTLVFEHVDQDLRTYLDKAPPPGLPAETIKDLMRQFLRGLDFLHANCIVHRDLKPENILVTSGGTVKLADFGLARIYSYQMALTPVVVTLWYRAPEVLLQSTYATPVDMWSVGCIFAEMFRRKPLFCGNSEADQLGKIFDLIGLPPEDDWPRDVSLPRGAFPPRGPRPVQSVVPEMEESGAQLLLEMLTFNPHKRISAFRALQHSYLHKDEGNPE
CDK4, sequence (P24385 whole entry partner): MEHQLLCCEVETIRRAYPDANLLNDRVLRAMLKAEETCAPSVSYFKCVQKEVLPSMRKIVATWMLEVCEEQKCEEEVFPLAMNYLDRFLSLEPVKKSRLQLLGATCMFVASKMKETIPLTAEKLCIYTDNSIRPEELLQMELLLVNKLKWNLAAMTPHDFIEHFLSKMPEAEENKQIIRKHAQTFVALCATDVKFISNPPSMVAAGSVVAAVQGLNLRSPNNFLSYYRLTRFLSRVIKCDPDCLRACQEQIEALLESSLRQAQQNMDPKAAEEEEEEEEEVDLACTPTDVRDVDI

O=C(N1CC2COCC2C1)N1OC1c1ccccc1 (centres unmarked) [Compound 148]
competition with Compound 303 probe for CDK4 binding [1]: competition with the Compound 303 probe for CDK4 binding in a dose-dependent manner | EC50 [2]: 330 µM
